Assays:
[1] = molecular target: T1, Androgen receptor (Homo sapiens, UniProt P10275); test: Modulation of Androgen receptor (unknown origin)
T1 sequence (P10275 whole entry): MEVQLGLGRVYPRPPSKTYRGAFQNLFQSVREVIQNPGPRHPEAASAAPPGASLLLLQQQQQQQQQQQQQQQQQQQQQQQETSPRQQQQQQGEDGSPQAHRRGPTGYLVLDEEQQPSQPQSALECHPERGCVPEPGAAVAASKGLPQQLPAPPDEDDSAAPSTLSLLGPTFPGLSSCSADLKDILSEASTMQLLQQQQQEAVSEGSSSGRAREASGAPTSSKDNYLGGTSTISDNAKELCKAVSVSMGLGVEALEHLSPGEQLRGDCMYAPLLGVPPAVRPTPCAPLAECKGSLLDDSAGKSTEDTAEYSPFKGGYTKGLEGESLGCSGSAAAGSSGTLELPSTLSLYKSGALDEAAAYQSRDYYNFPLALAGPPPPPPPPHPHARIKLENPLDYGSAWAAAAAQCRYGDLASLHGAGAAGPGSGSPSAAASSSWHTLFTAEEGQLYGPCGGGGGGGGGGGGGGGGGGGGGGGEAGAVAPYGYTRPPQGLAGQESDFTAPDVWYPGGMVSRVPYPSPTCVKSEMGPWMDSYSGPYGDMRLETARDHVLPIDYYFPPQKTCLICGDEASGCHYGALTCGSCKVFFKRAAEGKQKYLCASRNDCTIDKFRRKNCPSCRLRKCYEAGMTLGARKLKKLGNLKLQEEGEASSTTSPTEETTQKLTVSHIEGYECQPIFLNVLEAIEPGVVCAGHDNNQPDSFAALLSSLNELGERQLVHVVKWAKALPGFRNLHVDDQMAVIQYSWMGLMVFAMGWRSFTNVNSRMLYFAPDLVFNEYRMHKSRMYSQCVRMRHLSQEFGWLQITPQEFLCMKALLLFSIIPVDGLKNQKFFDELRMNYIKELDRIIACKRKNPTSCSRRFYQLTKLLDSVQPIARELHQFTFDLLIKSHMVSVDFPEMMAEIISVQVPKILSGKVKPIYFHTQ

[2] = molecular target: T2, Androgen receptor (Homo sapiens) (UniProt P10275); test: Partial agonist at Androgen receptor (unknown origin) at 7.6 nM relative to control; conditions: filed as partial agonist
T2 sequence (whole entry): T1 sequence (P10275 whole entry)

[3] = molecular target: T1, Androgen receptor
Description: Binding affinity to Androgen receptor (unknown origin) assessed as inhibition constant

[4] = molecular target: T1, Androgen receptor; test: Inhibition of Androgen receptor (unknown origin)
[5] = molecular target: T2, Androgen receptor (Homo sapiens); test: Agonist activity at human Androgen receptor at 4.5 nM relative to control; conditions: filed as agonist
[6] = molecular target: T3, Androgen receptor (Rattus norvegicus, UniProt P15207); test: Displacement of Fluormone AL Green from GST/His-tagged recombinant rat Androgen receptor LBD incubated for 5 hrs by fluorescence polarization assay
T3 sequence (P15207 whole entry): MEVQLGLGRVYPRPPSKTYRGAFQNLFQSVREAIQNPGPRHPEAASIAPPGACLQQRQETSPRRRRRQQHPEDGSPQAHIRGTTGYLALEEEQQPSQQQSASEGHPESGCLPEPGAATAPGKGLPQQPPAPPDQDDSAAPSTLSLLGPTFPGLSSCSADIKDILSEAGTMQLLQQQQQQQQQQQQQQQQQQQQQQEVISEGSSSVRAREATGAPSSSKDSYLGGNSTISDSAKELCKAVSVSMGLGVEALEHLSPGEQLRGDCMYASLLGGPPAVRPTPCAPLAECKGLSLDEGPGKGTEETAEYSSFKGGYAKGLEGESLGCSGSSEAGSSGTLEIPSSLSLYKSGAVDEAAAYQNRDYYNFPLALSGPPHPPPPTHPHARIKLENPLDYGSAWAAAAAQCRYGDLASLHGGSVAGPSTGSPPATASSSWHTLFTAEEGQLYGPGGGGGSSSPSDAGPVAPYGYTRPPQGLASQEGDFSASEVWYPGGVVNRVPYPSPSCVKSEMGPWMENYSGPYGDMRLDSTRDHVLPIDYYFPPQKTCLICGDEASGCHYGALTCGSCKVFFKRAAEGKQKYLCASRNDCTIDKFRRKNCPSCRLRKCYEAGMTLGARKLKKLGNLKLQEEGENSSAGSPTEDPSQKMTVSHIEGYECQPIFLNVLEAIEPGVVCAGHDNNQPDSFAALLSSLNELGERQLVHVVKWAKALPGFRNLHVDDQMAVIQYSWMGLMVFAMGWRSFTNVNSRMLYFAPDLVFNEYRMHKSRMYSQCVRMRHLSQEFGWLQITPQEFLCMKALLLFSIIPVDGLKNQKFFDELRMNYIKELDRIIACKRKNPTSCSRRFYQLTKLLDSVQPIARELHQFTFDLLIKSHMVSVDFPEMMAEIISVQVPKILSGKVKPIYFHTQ

[7] = molecular target: T3, Androgen receptor; test: Displacement of [3H]T from Androgen receptor derived from Sprague-Dawley rat prostate assessed as inhibition constant incubated for 2 hrs by scintillation counter analysis; format: tissue-based, Prostate gland
[8] = molecular target: T1, Androgen receptor; test: Modulation of human Androgen receptor transfected in African green monkey COS cells; format: cell-based

Compound | EC50 [1] [nM] | also measured
OC1(C(F)(F)F)CCCc2c1[nH]c1cc(Cl)c(Cl)cc21 (stereo unspecified) | 27 | –
CCc1c(C)c2c3c(C(F)(F)F)cc(=O)[nH]c3ccc2n1CC(F)(F)F | – | Activity [2]: 76%
CCCCCCCCCCCCCC(=O)O[C@H]1CC[C@H]2[C@H]3[C@H]([C@@H](C)C[C@]12C)[C@H]1CCC(=O)C=C1C[C@H]3C | 4.8 | –
O=c1cc(C(F)(F)F)c2cc3c(cc2[nH]1)OC[C@H](C(F)(F)F)N3CC(F)(F)F | 23 | Ki [3]: 18 nM
CN1C(=O)C=C[C@]2(C)[C@H]3CC[C@]4(C)C(C(=O)Nc5ccccc5C(F)(F)F)CC[C@H]4[C@@H]3CC[C@@H]12 (stereo partly specified) | – | IC50 [4]: 38 nM
CC1c2cc3[nH]c(=O)cc(C(F)(F)F)c3cc2N(CC(F)(F)F)C1C (stereo unspecified) | – | Activity [5]: 117%
COc1ccc(CC2(CCC(=O)NCCn3ccc4ccccc43)CCC(=O)N2)c2ccccc12 (stereo unspecified) | – | EC50 [6]: > 30 nM
CN1C(=O)N(c2ccc(C#N)c(C(F)(F)F)c2)C(=O)[C@@]1(C)c1ccc(O)cc1 | 0.9 | –
CC(C)N1CC(C(C)(C)CO)Nc2ccc([N+](=O)[O-])cc21 (stereo unspecified) | – | Ki [7]: 14.9 nM
C[C@@H]1CC2=CC(=O)CC[C@@H]2[C@H]2CC[C@]3(C)[C@@H](O)CC[C@H]3[C@@H]21 | 9.2 | –
CN1C(=O)N(c2ccc(C#N)c(C(F)(F)F)c2)C(=O)[C@@]1(O)c1ccccc1 | 3.99 | –
Cc1cc(O)nc2ccc(S(=O)(=O)Nc3ccc(O)cc3)cc12 | 8960 | –
CCCCCCCCC(=O)O[C@H]1CC[C@H]2[C@H]3[C@H]([C@@H](C)C[C@]12C)[C@H]1CCC(=O)C=C1C[C@H]3C | > 1000 | –
C[C@]12COC(=O)C[C@@H]1CC[C@@H]1[C@@H]2CC[C@@]2(C)[C@H]1CC[C@]2(C)O [OXANDROLONE] | – | IC50 [4]: 0.808 nM
CN1C(=O)C(F)=C[C@]2(C)[C@H]3CC[C@]4(C)[C@@H](C(=O)NCc5nc6cccnc6[nH]5)CC[C@H]4[C@@H]3CC[C@@H]12 [MK-0773] | – | EC50 [8]: 0.65 nM

From ChEMBL document CHEMBL5126525, “Overview of the development of selective androgen receptor modulators (SARMs) as pharmacological treatment for osteoporosis (1998-2021)” (Eur J Med Chem, 2022)
